The values below come from US4062973A, “Sulfur-containing derivatives of cyclohexylphenyl-ethane” (Boehringer Ingelheim GmbH, priority 1975, dated 1977).

One series has as its system mice. Kind of series: Determination of the prolongation of the bleeding time. The class given is in vivo. The following applies: 10 mgm/kg orally, awake mice, compared with untreated control group. How it is done: 2. determination of the prolongation of the bleeding time:
To determine the effect on the bleeding time, 10 mgm/kg of the test compound were administered orally to awake, unanesthetized mice. After 1 hour, and again after 3 hours, about 0.5 mm from the end of the tail of each animal was cut off, and the exuded blood was carefully soaked up into filter paper every 30 seconds. The number of drops of blood so obtained provided a measure for the bleeding time (5 animals/experiment).
The numbers in Table II represent the prolongation in %, compared with an untreated control group: […]

The next series deals with white mice. Put plainly: Acute toxicity in white mice after oral application of a single dose. The format is in vivo. The note with it: 1000 mgm/kg, observation time 14 days. As for the experimental part: (§1) The acute toxicity of the compounds was determined in white mice (observation time: 14 days) after oral application of a single dose: […]
Test in series [1]: as above
The format is in vivo. The note with it: mouse, in vivo, observation time 14 days. How it is done:
as §1

Series [2] has as its system platelet-rich plasma of healthy human donors. Kind of series: Determination of platelet aggregation by the method of Born and Cross (collagen-induced, platelet-rich plasma). The format is cell-based. The following applies: 10^-4 mol/lit., compared with control batch without test compound; for inhibition at 100 µM: Homo sapiens, Platelet. How it is done: 1. Determination of platelet aggregation by the method of Born and Cross (see J. Physiol. 170, 397 (1964)):
The platelet aggregation was measured in the platelet-rich plasma of healthy human donors. The alterations of the optical density of the platelet suspension was measured and recorded photometrically after the addition of commercial collagen manufactured by Hormonchemie, Munich, Germany, containing 1 mgm of collagen fibrils per ml. From the angle of inclination of the density curve, the rate of aggregation was estimated (Vmax). The optical density (O.D.) was taken at the point on the curve where the most light was transmitted. Small doses of collagen were chosen, but sufficient to give irreversible aggregation. To provoke maximum aggregation, about 0.01 ml of the collagen solution was added to 1 ml of platelet-rich plasma.
The numbers in Table I represent the % reduction in the aggregation rate (Vmax) and the % change in optical density (O.D.), compared with a control batch without addition of a test compound.

Setting [3] is: read-out: % Reduction (change) in optical density (O.D.).
Setting [4] is: read-out: % Reduction in the aggregation rate (Vmax).

Where two headings read alike, the source gives them in different places.

The LD50 is the dose expected to kill half of the subjects tested. A low value points to a more toxic substance.

For the compound `COC(=O)C[S+]([O-])C(C)c1ccc(C2CCCCC2)cc1` (stereo not drawn) [B, methyl [1-(4'-cyclohexyl-phenyl)-ethylsulfinyl]-acetate], in the series on mice, the “Prolongation of the bleeding time in % after 1 hour” value (from here on “Prolongation … in % after 1 hour”) came to 117% and the “Prolongation of the bleeding time in % after 3 hours” value turned out to be 51%. Moreover, the “Acute toxicity: animals died” value in the series on white mice is 0 out of 10. Besides, the LD50 at 336 h in series [1] was > 1000 mg/kg.

As for `COC(=O)C[S+]([O-])C(C)c1ccc(C2CCCCC2)c(Cl)c1` (stereo not drawn) [C, methyl [1-(3'-chloro-4'-cyclohexyl-phenyl)-ethylsulfinyl]-acetate], the inhibition at 100 µM came out at 89% in series [2] (setting [3]) and 85% in series [2] (setting [4]).

As to `CC(c1ccc(C2CCCCC2)cc1)[S+]([O-])CC(=O)O` (stereo not drawn) [Compound A, [1-(4'-cyclohexyl-phenyl)-ethylsulfinyl]-acetic acid], in the series with mice, the “Prolongation … in % after 1 hour” value came out at 300% and the “Prolongation of the bleeding time in % after 3 hours” value is reported as 122%. Moreover, the “Acute toxicity: animals died” value in the series with white mice was 0 out of 10. Further, in series [1], the LD50 at 336 h is > 1000 mg/kg.

As to `CCOC(=O)C[S+]([O-])C(C)c1ccc(C2CCCCC2)c(Cl)c1` (stereo not drawn) [D, Ethyl [1-(3'-chloro-4'-cyclohexyl-phenyl)-ethylsulfinyl]-acetate], in series [2] (100 µM), the “% Reduction (change) in optical density (O.D.)” value worked out at 89% and the “% Reduction in the aggregation rate (Vmax)” value is 87%. In addition, the “Prolongation … in % after 1 hour” value in the series with mice worked out at 49%.

Regarding `CC(c1ccc(C2CCCCC2)c(Cl)c1)[S+]([O-])CC(=O)N1CCCCC1` (stereo not drawn) [E, [1-(3'-chloro-4'-cyclohexyl-phenyl)-ethylsulfinyl]-acetic acid piperidide], the inhibition at 100 µM came out at 92% in series [2] (setting [3]) and 90% in series [2] (setting [4]). Further, the “Prolongation … in % after 1 hour” value with mice was determined as 37%. The “Acute toxicity: animals died” value in the series with white mice is given as 0 out of 10. Also, in series [1], the LD50 at 336 h was > 1000 mg/kg.
